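Test compounds were applied to cells in 96-well plates for 48 hours at 5 doses. The concentration for full growth arrest is given as TGI.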

Test systems include CAKI-1 renal; COLO 205 colon; K-562 leukemia; MALME-3M melanoma; NCI/ADR-RES ovarian; OVCAR-4 ovarian; PC-3 prostate; SK-MEL-28 melanoma; SK-OV-3 ovarian; SR leukemia.
Holding throughout (assay): growth of human tumour cells (NCI), 48 h

Consider `CC(C)c1cccc(C(C)C)c1NC(=O)/C(CC(=O)CC(c1ccccc1)c1c(O)c2ccccc2oc1=O)=N/O` (stereo unspecified), for which the TGI in the assay with CAKI-1 renal, with COLO 205 colon, with K-562 leukemia, with MALME-3M melanoma, in the assay with NCI/ADR-RES ovarian and in the assay with OVCAR-4 ovarian was greater than 100 µM in each case. Also, the TGI in the assay with PC-3 prostate, in the assay with SK-MEL-28 melanoma and with SK-OV-3 ovarian was greater than 100 µM throughout.

Take `CCOC(=O)C1(C#N)C(c2ccccc2)CC(O)(c2ccc(Cl)cc2)C(C(=O)c2ccc(Cl)cc2)C1c1ccccc1` (stereo unspecified): the TGI in the assay with CAKI-1 renal, in the assay on COLO 205 colon, in the assay with MALME-3M melanoma, in the assay on OVCAR-4 ovarian, in the assay with SK-MEL-28 melanoma and in the assay on SK-OV-3 ovarian was greater than 100 µM throughout. In the assay on SR leukemia, this molecule came in with a TGI greater than 100 µM.

In the case of `COC(=O)C(=O)C(C(=O)C(=O)Nc1cccc(C(C)=O)c1)c1nc2ccccc2[nH]c1=O` (stereo unspecified), the TGI with CAKI-1 renal, with COLO 205 colon, in the assay on K-562 leukemia, with MALME-3M melanoma, with OVCAR-4 ovarian and in the assay on SK-MEL-28 melanoma was greater than 100 µM throughout. For the same molecule, in the assay with SK-OV-3 ovarian, the TGI was greater than 100 µM.

Turning to `CN(C)/N=C(/c1nc2ccc(Cl)cc2[nH]c1=O)C(O)c1ccc(C(O)/C(=N\N(C)C)c2nc3ccc(Cl)cc3[nH]c2=O)cc1` (stereo unspecified), the TGI with CAKI-1 renal, in the assay with COLO 205 colon, in the assay on K-562 leukemia, in the assay on MALME-3M melanoma, in the assay on OVCAR-4 ovarian and in the assay with SK-MEL-28 melanoma was greater than 100 µM in each case. Besides, the TGI with SK-OV-3 ovarian and with SR leukemia was greater than 100 µM throughout.

On to `O=c1nc2c(c(-c3ccc(Br)cc3)[nH]1)COC/C2=C\c1ccc(Br)cc1`, for which the TGI with CAKI-1 renal, with COLO 205 colon, in the assay on K-562 leukemia, in the assay with MALME-3M melanoma, with NCI/ADR-RES ovarian and with OVCAR-4 ovarian was greater than 50 µM in each case. Also, the TGI with PC-3 prostate, with SK-MEL-28 melanoma and in the assay on SK-OV-3 ovarian was greater than 50 µM in each case.

`S=C(N/N=C\C(=N/NC(=S)N1CCCCC1)c1ccccc1)N1CCCCC1`: the TGI with CAKI-1 renal is 4.66 µM; in the assay with COLO 205 colon, 3.86 µM; in the assay on K-562 leukemia, greater than 100 µM; with MALME-3M melanoma it was 3.57 µM; in the assay on NCI/ADR-RES ovarian, 7.87 µM; in the assay on OVCAR-4 ovarian, 3.43 µM. Besides, the figures for the TGI in the assay with PC-3 prostate, with SK-MEL-28 melanoma and in the assay on SK-OV-3 ovarian were 4.06 µM, 3.65 µM and 3.37 µM, respectively.

On to `OCCOCn1nncc1Cn1ncc2c(SCc3ccccc3)ncnc21`, for which the TGI with CAKI-1 renal, in the assay on COLO 205 colon, in the assay with K-562 leukemia, in the assay with MALME-3M melanoma, in the assay with NCI/ADR-RES ovarian and with OVCAR-4 ovarian was greater than 100 µM each time. Besides, the TGI with PC-3 prostate, in the assay with SK-MEL-28 melanoma and in the assay with SK-OV-3 ovarian was greater than 100 µM each time.

On to `CCP(=O)(OC)C1=CCN(C(=O)OCC[Si](C)(C)C)CC1` (stereo unspecified), for which the TGI with CAKI-1 renal, with COLO 205 colon, in the assay on K-562 leukemia, with MALME-3M melanoma, in the assay with NCI/ADR-RES ovarian and with OVCAR-4 ovarian was greater than 100 µM in each case. For the same molecule, the TGI in the assay on PC-3 prostate, with SK-MEL-28 melanoma and with SK-OV-3 ovarian was greater than 100 µM each time.

Take `O=C1N=C2SC(=S)NC(=S)N2NC12c1ccccc1-c1ccccc12`: the TGI in the assay with CAKI-1 renal, in the assay with COLO 205 colon, in the assay with K-562 leukemia, with MALME-3M melanoma, in the assay on NCI/ADR-RES ovarian and in the assay with OVCAR-4 ovarian was greater than 10 µM in each case. Further, the TGI in the assay with SK-OV-3 ovarian and with SR leukemia was greater than 10 µM in each case.

For `NCCCCNCCCNC(=O)c1nc(-c2nc(CCN)sc2Cl)sc1Cl`, the TGI was greater than 100 µM with CAKI-1 renal; greater than 100 µM with COLO 205 colon; greater than 100 µM in the assay with K-562 leukemia; greater than 100 µM in the assay on MALME-3M melanoma; 71.8 µM in the assay on OVCAR-4 ovarian; greater than 100 µM in the assay with SK-MEL-28 melanoma. Besides, the TGI in the assay on SK-OV-3 ovarian and in the assay on SR leukemia was greater than 100 µM each time.

`CCOC(=O)c1s/c(=N\Nc2nc3ccccc3cc2C2OCCO2)n(Cc2ccccc2)c1C`: the TGI in the assay with CAKI-1 renal, with COLO 205 colon, with K-562 leukemia, with MALME-3M melanoma, with OVCAR-4 ovarian and in the assay with SK-MEL-28 melanoma was greater than 100 µM in each case. Moreover, the TGI in the assay with SK-OV-3 ovarian and in the assay on SR leukemia was greater than 100 µM each time.

As for `O=C1C=CC=C/C1=C1\N=C(c2ccccc2OCC(=O)c2ccccc2)SS1`, the TGI with CAKI-1 renal, in the assay on K-562 leukemia, in the assay with MALME-3M melanoma, in the assay with NCI/ADR-RES ovarian, in the assay on OVCAR-4 ovarian and with SK-MEL-28 melanoma was greater than 100 µM in each case. Moreover, the TGI with SK-OV-3 ovarian was greater than 100 µM.

With `CC(C)N1CC2CC(CN(C(=O)c3ccccc3)C2)C1`, the TGI with CAKI-1 renal, in the assay with COLO 205 colon, in the assay with K-562 leukemia, with MALME-3M melanoma, in the assay on OVCAR-4 ovarian and in the assay on SK-MEL-28 melanoma was greater than 100 µM each time. Also, in the assay on SK-OV-3 ovarian, the TGI was greater than 100 µM.

As to `CN(C)CCNC(=O)c1cc(Cl)cc2ccc(-c3ccccc3)nc12`, the TGI is 8.56 µM in the assay with CAKI-1 renal; 4.28 µM in the assay with COLO 205 colon; 8.17 µM in the assay with K-562 leukemia; 8.26 µM in the assay with MALME-3M melanoma; 10.9 µM with NCI/ADR-RES ovarian; 13.7 µM in the assay with OVCAR-4 ovarian. In addition, the TGI in the assay on SK-MEL-28 melanoma was 16.1 µM; in the assay with SK-OV-3 ovarian, 12.8 µM.

Consider `CC1=NN(c2nc(N)nc(-c3sccc3N)n2)C(C)(C)C1`, for which the TGI in the assay on CAKI-1 renal, in the assay on COLO 205 colon, in the assay on K-562 leukemia, with MALME-3M melanoma, with NCI/ADR-RES ovarian and with OVCAR-4 ovarian was greater than 100 µM each time. Further, the TGI in the assay with SK-MEL-28 melanoma and with SK-OV-3 ovarian was greater than 100 µM each time.
